Assay [1] concerns the target Cyclin-dependent kinase 7 (Homo sapiens) (UniProt P50613). Briefly: Inhibition of CDK7/CyclinH/MAT1 at assessed as residual enzyme activity at 1 uM.
A further assay concerns HCT-116. Briefly: Antiproliferative activity against human HCT116 cells.
Assay [2] concerns the target Myotonin-protein kinase (Homo sapiens) (UniProt Q09013). Briefly: Inhibition of human DMPK assessed as residual enzyme activity at 0.1 uM.
For assay [3], the target named is Serine/threonine-protein kinase MARK1 (Homo sapiens) (UniProt Q9P0L2). Briefly: Inhibition of human MARK1 kinase assessed as residual enzyme activity at 0.1 uM.
The target of assay [4] is Ephrin type-B receptor 1 (Homo sapiens) (UniProt P54762). Briefly: Inhibition of human EphB1 kinase assessed as residual enzyme activity at 0.1 uM.
Assay [5] concerns the target Tyrosine-protein kinase ZAP-70 (Homo sapiens) (UniProt P43403). The experiment in a line: Inhibition of human ZAP70 kinase assessed as residual enzyme activity at 0.1 uM.

Sequence of Tyrosine-protein kinase ZAP-70 (Homo sapiens) (P43403 whole entry): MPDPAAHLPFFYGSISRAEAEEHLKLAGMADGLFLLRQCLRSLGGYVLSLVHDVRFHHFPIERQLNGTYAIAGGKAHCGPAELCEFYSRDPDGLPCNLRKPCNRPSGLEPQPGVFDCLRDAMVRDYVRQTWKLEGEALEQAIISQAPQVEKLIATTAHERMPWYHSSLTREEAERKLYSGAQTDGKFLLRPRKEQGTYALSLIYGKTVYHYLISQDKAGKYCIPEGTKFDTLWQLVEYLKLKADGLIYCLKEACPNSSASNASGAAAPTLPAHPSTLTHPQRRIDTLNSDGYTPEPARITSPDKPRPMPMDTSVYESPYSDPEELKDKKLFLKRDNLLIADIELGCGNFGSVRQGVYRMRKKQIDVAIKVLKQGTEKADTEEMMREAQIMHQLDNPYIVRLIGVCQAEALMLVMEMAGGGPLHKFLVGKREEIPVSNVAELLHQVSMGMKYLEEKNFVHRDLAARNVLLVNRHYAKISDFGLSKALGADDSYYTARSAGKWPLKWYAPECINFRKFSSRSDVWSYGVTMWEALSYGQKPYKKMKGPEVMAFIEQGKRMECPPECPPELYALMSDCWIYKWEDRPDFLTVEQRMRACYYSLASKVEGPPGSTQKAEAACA
Sequence of Cyclin-dependent kinase 7 (Homo sapiens) (P50613 whole entry): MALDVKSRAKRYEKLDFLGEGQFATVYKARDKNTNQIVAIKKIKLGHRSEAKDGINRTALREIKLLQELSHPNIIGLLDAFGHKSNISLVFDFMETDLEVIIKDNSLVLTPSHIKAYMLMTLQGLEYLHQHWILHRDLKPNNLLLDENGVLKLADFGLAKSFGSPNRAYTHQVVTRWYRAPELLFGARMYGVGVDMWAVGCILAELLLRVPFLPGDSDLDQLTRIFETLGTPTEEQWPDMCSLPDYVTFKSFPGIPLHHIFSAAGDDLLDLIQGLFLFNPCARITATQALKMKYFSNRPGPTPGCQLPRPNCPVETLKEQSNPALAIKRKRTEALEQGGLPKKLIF
Sequence of Ephrin type-B receptor 1 (Homo sapiens) (P54762 whole entry): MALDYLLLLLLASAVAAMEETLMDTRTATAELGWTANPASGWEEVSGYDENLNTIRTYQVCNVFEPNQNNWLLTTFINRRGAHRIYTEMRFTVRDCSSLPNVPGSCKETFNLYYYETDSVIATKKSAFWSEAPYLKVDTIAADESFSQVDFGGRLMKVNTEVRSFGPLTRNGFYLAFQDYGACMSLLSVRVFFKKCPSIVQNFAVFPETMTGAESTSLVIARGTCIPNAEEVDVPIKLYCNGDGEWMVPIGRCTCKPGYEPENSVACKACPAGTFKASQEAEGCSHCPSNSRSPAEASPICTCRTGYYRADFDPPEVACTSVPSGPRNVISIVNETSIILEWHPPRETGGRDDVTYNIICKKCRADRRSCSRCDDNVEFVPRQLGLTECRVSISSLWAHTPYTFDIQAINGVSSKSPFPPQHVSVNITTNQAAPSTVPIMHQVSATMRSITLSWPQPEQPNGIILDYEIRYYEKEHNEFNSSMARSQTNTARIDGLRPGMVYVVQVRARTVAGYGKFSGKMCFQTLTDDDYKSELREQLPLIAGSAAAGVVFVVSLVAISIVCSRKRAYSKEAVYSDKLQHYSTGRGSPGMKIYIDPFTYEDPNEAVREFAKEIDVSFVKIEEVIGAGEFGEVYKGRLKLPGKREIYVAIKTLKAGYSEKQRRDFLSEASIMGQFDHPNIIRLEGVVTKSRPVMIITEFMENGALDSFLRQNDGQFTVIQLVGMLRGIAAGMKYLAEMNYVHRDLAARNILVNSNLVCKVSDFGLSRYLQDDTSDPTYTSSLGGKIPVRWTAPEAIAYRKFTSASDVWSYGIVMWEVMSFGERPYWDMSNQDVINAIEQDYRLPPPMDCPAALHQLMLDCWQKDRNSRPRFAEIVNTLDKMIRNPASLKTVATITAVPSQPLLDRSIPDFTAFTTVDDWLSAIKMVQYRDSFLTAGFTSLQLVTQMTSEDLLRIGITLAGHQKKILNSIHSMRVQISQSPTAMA
Sequence of Serine/threonine-protein kinase MARK1 (Homo sapiens) (Q9P0L2 whole entry, looked up): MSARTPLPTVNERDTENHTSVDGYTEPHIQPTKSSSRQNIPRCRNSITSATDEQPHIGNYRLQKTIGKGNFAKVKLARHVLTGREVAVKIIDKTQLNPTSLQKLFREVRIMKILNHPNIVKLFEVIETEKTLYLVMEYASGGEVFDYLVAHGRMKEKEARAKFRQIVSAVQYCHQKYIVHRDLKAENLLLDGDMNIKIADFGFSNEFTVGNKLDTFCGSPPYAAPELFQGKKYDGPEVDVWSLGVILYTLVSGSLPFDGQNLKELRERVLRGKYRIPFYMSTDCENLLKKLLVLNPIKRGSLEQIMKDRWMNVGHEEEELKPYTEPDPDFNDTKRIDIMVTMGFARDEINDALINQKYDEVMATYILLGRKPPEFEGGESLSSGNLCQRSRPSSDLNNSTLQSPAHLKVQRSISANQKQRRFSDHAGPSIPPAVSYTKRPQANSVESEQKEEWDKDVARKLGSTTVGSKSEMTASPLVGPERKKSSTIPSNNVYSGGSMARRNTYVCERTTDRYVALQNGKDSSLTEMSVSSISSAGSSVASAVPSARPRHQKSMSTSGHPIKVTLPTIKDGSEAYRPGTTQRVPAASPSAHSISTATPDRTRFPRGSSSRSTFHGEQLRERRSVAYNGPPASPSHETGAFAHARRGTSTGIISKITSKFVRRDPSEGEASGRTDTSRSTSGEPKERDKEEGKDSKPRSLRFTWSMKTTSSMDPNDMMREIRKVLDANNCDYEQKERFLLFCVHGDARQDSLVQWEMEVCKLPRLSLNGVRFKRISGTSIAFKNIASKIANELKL
Sequence of Myotonin-protein kinase (Homo sapiens) (Q09013 whole entry): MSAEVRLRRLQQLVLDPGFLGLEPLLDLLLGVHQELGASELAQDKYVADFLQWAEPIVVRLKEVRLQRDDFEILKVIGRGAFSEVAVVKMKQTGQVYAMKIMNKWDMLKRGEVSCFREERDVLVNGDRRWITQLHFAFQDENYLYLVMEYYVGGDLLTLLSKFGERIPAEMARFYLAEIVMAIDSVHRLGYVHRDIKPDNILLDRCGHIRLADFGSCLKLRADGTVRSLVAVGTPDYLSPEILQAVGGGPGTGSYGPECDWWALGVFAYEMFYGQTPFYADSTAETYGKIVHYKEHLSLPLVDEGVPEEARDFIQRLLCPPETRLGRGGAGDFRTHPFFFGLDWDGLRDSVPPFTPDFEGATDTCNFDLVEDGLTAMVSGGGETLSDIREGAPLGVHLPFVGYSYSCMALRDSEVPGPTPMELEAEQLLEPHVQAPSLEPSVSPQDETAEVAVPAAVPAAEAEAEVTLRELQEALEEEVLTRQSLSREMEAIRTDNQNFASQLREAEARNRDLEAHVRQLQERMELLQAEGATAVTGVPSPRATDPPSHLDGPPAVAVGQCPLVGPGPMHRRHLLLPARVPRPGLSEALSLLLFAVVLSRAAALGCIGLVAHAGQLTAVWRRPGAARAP

As usually defined, the IC50 is the concentration needed to halve the response being measured. Low readings indicate greater potency, high ones weaker potency. Regarding `CCN1C(=O)C(C)(C)c2cc3[nH]c4c(c3cc21)CCCc1c(C)n[nH]c1-4`, the Activity in assay [1] came out at 82%; in assay [2], 97%; in assay [3] it was 41%; in assay [4] it was 58%; in assay [5], 127%. The IC50 with HCT-116 stood at 70 nM.

Source of the values: ChEMBL document CHEMBL1155876 (J Med Chem, 2008).
